Test results published in publication PMC8877962, “New Preservative-Free Formulation for the Enhanced Ocular Bioavailability of Prostaglandin Analogues in Glaucoma” (Pharmaceutics, 2022).
Where two headings read alike, the source gives them in different places. Blank lines part the entries; values can stand above or below the compound they belong to.

Assays:
[1] = Differential scanning calorimetry of travoprost:excipient blends; format: physicochemical
Description: The differential scanning calorimetry (DSC) studies were performed using a DSC 3 thermal analysis device (Mettler-Toledo GmbH, Greinfensee, Switzerland) calibrated upstream with high-purity zinc (99.99%, Tfus = 419.6 ± 0.7 °C, ΔfusH = 107.5 ± 3.2 J.g^−1), high-purity indium (99.99%, Tfus = 156.6 ± 0.3 °C, ΔfusH = 28.45 ± 0.60 J.g^−1) and controlled with both, and Milli-Q water (Merck Millipore, Burlington, MA, USA). Each sample was introduced in a 100 µL aluminum pan which was hermetically sealed afterwards. The conditions of the sample preparation, as well as the applied temperature program, were strictly identical to avoid any thermal history dependence of the samples. The cycle, performed twice on each sample, was freezing from ambient temperature to −80 °C at a rate of 5 °C/min, then holding for 3 min at −80 °C, then heating to 25 °C, at a rate of 5 °C/min under a 60 mL/min dry air flow. Travoprost, NaHA and PS80 were analyzed either alone or as binary drug:excipient blends at different weight ratios (1:3, 1:1 and 3:1, respectively). Measurements were performed on 3 independent samples (n = 3). Thermogram evaluation was performed using STARe version 16.30 (Mettler-Toledo GmbH, Greinfensee, Switzerland).

[2] = parameters: method as in doi:10.1002/etc.5620171002; conditions: cited from earlier work
[3] = parameters: method as in earlier work; conditions: fluorescence-based method using pyrene-3-carboxaldehyde; cited from earlier work
[4] = Pyrene fluorescence spectroscopy (micelle formation, CMC determination); format: physicochemical; conditions: pyrene 7.5 µM
Description: Pyrene is a lipophilic fluorescent probe often used to determine the critical micellar concentration (CMC) of surfactants. Indeed, it has the interesting feature of being sensitive to the polarity of its environment and partitioning into micelles leading to an hyperchromicity. First, 40 mg of pyrene were dissolved into 10 mL of ethanol, this solution was diluted in water to achieve a stock solution with a concentration of 7.5 µM. This stock solution was used as solvent to prepare PS80 and NaHA solutions of different concentrations in triplicate. Fluorescence measurements were performed using a Varian Cary Eclipse fluorescence spectrophotometer and processed with the Cary Eclipse software version 1.1.132 (Agilent Technologies, Santa Clara, CA, USA). The data were acquired using an excitation wavelength of 230 nm with a 20 nm slit and by recording an emission scan from 350 to 450 nm with a 2.5 nm slit. Peaks 1 and 3, used to determine the fluorescence ratio I1/I3, were at approximately 372 and 383 nm, respectively. PS80 CMC was determined using a sigmoidal non-linear variable slope regression performed using GraphPad Prism version 8.0.2 for windows (GraphPad Software, San Diego, CA, USA). CMC was considered as the abscissa of the point at which the top of the sigmoid and the tangent to the inflection point crossed.

[5] = parameters: method as in doi:10.1007/s11743-000-0113-4; conditions: surface tension measurement; cited from earlier work
[6] = Travoprost:Excipient mass ratio 1:0 (travoprost alone), n = 3
[7] = Travoprost:Polysorbate 80 mass ratio 1:1
[8] = Travoprost:Polysorbate 80 mass ratio 1:3
[9] = Travoprost:Polysorbate 80 mass ratio 3:1
[10] = Travoprost:Sodium Hyaluronate mass ratio 1:1
[11] = Travoprost:Sodium Hyaluronate mass ratio 1:3
[12] = Travoprost:Sodium Hyaluronate mass ratio 3:1

Tg [1, 6]: −21.9 ± 0.6 °C
ΔCp normalized to travoprost content [1, 6]: −0.57 ± 0.05 J/g/K
Tg ([1]; Travoprost:Excipient mass ratio 1:0 (travoprost alone), n = 3, listed as travoprost): around −22 °C
Tg [1, 7]: −54.4 ± 0.6 °C
ΔCp normalized to travoprost content [1, 7]: −2.04 ± 0.06 J/g/K
Tg [1, 8]: −58.8 ± 0.7 °C
ΔCp normalized to travoprost content [1, 8]: −2.96 ± 0.07 J/g/K
Tg [1, 9]: −44.2 ± 0.7 °C
ΔCp normalized to travoprost content [1, 9]: −1.32 ± 0.06 J/g/K
Tg [1, 10]: −21.4 ± 0.6 °C
ΔCp normalized to travoprost content [1, 10]: −0.60 ± 0.05 J/g/K
Tg [1, 11]: −22.3 ± 0.7 °C
ΔCp normalized to travoprost content [1, 11]: −0.55 ± 0.05 J/g/K
Tg [1, 12]: −20.3 ± 0.6 °C
ΔCp normalized to travoprost content [1, 12]: −0.58 ± 0.06 J/g/K
shift in the Tg ([1]; in presence of PS80, when increasing the excipient content): −22 to −58 °C
Compound: CC(C)OC(=O)CCC/C=C\C[C@@H]1[C@@H](/C=C/[C@@H](O)COc2cccc(C(F)(F)F)c2)[C@H](O)C[C@@H]1O [Travoprost]

Compound: c1cc2ccc3cccc4ccc(c1)c2c34 [pyrene, Pyrene]
LogP [2]: 6.0

I1/I3 fluorescence ratio of pyrene with increasing excipient concentration [4]: decrease
Compound: Polysorbate 80 [PS80]
CMC [3]: 0.015 mM
CMC [5]: 0.018 mM
